Measured values published in patent US20160128952A1, “Pharmaceutical Combination” (Gruenenthal GmbH, priority 2006, published 2016).

System: inflammatory pain
Test: Randall-Selitto test in rats (carrageenin-induced paw oedema, pressure pain)
Assay type: in vivo, rat
Method: The weight ratios of the components (a) and (b) that will lead to a supra-additive effect (synergistic effect) of the inventive pharmaceutical composition may be determined via the test of Randall and Selitto as described in Arch. Int. Pharmacodyn., 1957, 111: 409 to 419, which is a model for inflammatory pain. The respective part of the literature is hereby incorporated by reference and forms part of the present disclosure.
By means of injection of 0.1 ml of Carrageenin-suspension ventrally into a hind paw of a rat an oedema is induced, on which pain is generated 4 hours later by continuously increasing pressure with a stamp (2 mm tip diameter). The antinociceptive and antihyperalgesic activity of the tested substance is determined at different points in time after administration of the substance. The measured value to be determined and at the same time also the end point of the pain test is the pressure at which the vocalisation reaction of the rat occurs. The percentage maximum possible effect (%MPE) is calculated. The maximum pressure of the stamp is 250 g. The group size is n=10.
The interactions studies presented herein were performed using equieffective doses of the two components, calculated from the ratio of the respective ED50 values of the components if administered alone. […]

SMILES	analgesic effect (in words) (Paracetamol alone, i.p.)	ED50 (Rattus norvegicus, iv, 0.25 h, i.v., 15 min p. appl. (peak effect), %MPE, vocalisation pressure, n=10, read-out: ED50 (confidence interval) of A applied alone)
CC(=O)Nc1ccc(O)cc1 [Paracetamol]	dose-dependent analgesic effect	–
CC[C@@H](c1cccc(O)c1)[C@@H](C)CN(C)C [A, (1R,2R)-3-(3-Dimethylamino-1-ethyl-2-methyl-propyl)-phenol]	–	1.88 mg/kg
